Measurements: patent publication US20240148744A1 (Celgene Corporation, priority 2021, published 2024)

Experiments:
[1] = test system: Onchocerca gutturosa adult male worms; assay: Onchocerca gutturosa in vitro screening model: adult worm motility score and MTT/formazan viability; format: cell-based; conditions: read-out: O. gutt Activity class
[2] = test system: Dirofilaria immitis; assay: Heartworm screen Dirofilaria immitis (stage DiMF/DiL4 not specified in the tables); format: cell-based; conditions: read-out: D. immitis Activity class

SMILES: Cc1cn(C)c(S(=O)(=O)Nc2cccc3cccnc23)n1 [Compound 231, 1,4-dimethyl-N-(quinolin-8-yl)-1H-imidazole-2-sulfonamide]
- IC50 [1]: 500 to 5000 nM
- IC50 [2]: < 200 nM

SMILES: Cc1ccc(S(=O)(=O)Nc2cccc3cccnc23)c(C)n1 [Compound 187, 2,6-dimethyl-N-(quinolin-8-yl)pyridine-3-sulfonamide]
- IC50 [1]: 500 to 5000 nM
- IC50 [2]: 500 to 5000 nM

SMILES: Cc1cccnc1S(=O)(=O)Nc1cccc2c(C)ccnc12 [Compound 15, 3-methyl-N-(4-methyl-quinolin-8-yl)pyridine-2-sulfonamide]
- IC50 [1]: < 200 nM
- IC50 [2]: 500 to 5000 nM

SMILES: O=S(=O)(Nc1cccc2cccnc12)c1cc2ccccc2cn1 [Compound 270, N-(quinolin-8-yl)isoquinoline-3-sulfonamide]
- IC50 [1]: < 200 nM
- IC50 [2]: 200 to 500 nM

SMILES: O=S(=O)(Nc1cccc2cccnc12)c1cc(Cl)ccn1 [Compound 220, 4-chloro-N-(quinolin-8-yl)pyridine-2-sulfonamide]
- IC50 [1]: < 200 nM
- IC50 [2]: < 200 nM

SMILES: Cc1cccnc1S(=O)(=O)Nc1cccc2c1N(C)CCC2 [Compound 55, 3-methyl-N-(1-methyl-1,2,3,4-tetra-hydroquin-olin-8-yl)-pyridine-2-sulfonamide]
- IC50 [1]: 500 to 5000 nM
- IC50 [2]: 500 to 5000 nM

SMILES: CN(C)c1cccnc1S(=O)(=O)Nc1c(Cl)ccc2cccnc12 [Compound 99, N-(7-chloro-quinolin-8-yl)-3-(dimethyl-amino)pyridine-2-sulfonamide]
- IC50 [1]: 500 to 5000 nM
- IC50 [2]: 500 to 5000 nM

SMILES: COc1ccnc2c(NS(=O)(=O)c3ccc(C)cn3)cccc12 [Compound 124, N-(4-methoxy-quinolin-8-yl)-5-methylpyr-idine-2-sulfon-amide]
- IC50 [1]: < 200 nM
- IC50 [2]: 500 to 5000 nM

SMILES: Cc1cccnc1S(=O)(=O)Nc1c(N2CCOCC2)ccc2cccnc12 [Compound 18, 3-methyl-N-(7-morpho-linoquinolin-8-yl)pyridine-2-sulfonamide]
- IC50 [1]: 200 to 500 nM
- IC50 [2]: 200 to 500 nM

SMILES: CN(C)C(=O)c1cccnc1S(=O)(=O)Nc1cccc2cccnc12 [Compound 207, N,N-dimethyl-2-(N-quinolin-8-ylsulfamoyl) nicotinamide]
- IC50 [1]: 500 to 5000 nM
- IC50 [2]: 500 to 5000 nM

SMILES: O=S(=O)(Nc1cccc2cccnc12)c1ncccc1Cl [Compound 215, 3-chloro-N-(quinolin-8-yl)pyridine-2-sulfonamide]
- IC50 [1]: < 200 nM
- IC50 [2]: 500 to 5000 nM

SMILES: Cc1ccc(S(=O)(=O)Nc2cccc3cccnc23)nc1 [Compound 248, 5-methyl-N-(quinolin-8-yl)pyridine-2-sulfonamide]
- IC50 [1]: 500 to 5000 nM
- IC50 [2]: 200 to 500 nM

SMILES: Cc1ccc(S(=O)(=O)Nc2cccc3cc(Cl)cnc23)nc1 [Compound 120, N-(3-chloro-quinolin-8-yl)-5-methylpyr-idine-2-sulfon-amide]
- IC50 [1]: 200 to 500 nM
- IC50 [2]: 200 to 500 nM

SMILES: Cc1ncc(Cl)cc1S(=O)(=O)Nc1cccc2cccnc12 [Compound 181, 5-chloro-2-methyl-N-(quinolin-8-yl)pyridine-3-sulfonamide]
- IC50 [1]: 500 to 5000 nM
- IC50 [2]: 200 to 500 nM

SMILES: CCn1ccnc1S(=O)(=O)Nc1cccc2cc(F)cnc12 [Compound 109, 1-ethyl-N-(3-fluoroquinolin-8-yl)-1H-imidazole-2-sulfonamide]
- IC50 [1]: < 200 nM
- IC50 [2]: 200 to 500 nM

SMILES: Cc1cccnc1S(=O)(=O)Nc1c(OCC2CC2)ccc2cccnc12 [Compound 16, N-(7-(cyclo-propylmeth-oxy)quinolin-8-yl)-3-meth-ylpyridine-2-sulfonamide]
- IC50 [1]: 500 to 5000 nM
- IC50 [2]: < 200 nM

SMILES: Cc1cccnc1S(=O)(=O)Nc1c(Cl)ccc2cccnc12 [Compound 100, N-(7-chloro-quinolin-8-yl)-3-methylpyr-idine-2-sulfon-amide]
- IC50 [1]: < 200 nM
- IC50 [2]: 500 to 5000 nM

SMILES: CC(C)c1cccnc1S(=O)(=O)Nc1cccc2cccnc12 [Compound 211, 3-isopropyl-N-(quinolin-8-yl)pyridine-2-sulfonamide]
- IC50 [1]: < 200 nM
- IC50 [2]: 500 to 5000 nM
